# Data as given in patent US12390440B2, “Immunomodulating trifluoromethyl-aminal azalides” (Zoetis Services LLC, priority 2020, dated 2025).
# Tests used:
# IL-6 = assay: Bovine whole blood assay, IL-6; type: cell-based; conditions: Bos taurus, fresh whole bovine blood, LPS 1 μg/mL
# Experimental: (§1) (protected from light) for 30 minutes.
# P. multocida = assay: Murine P. multocida intranasal challenge study, survival; type: in vivo; conditions: 32 mg/kg (T03) subcutaneous 18 hours after challenge, 5×10^3 CFU/mouse
# Experimental: In one murine P. multocida intranasal challenge study, mice were administered tulathromycin (16 mg/kg; T02), M9 (32 mg/kg; T03), or ceftiofur (9 mg/kg; T04) by subcutaneous injection 18 hours after bacterial challenge (5×10^3 CFU/mouse) for lung tissue RNA sequence analysis. Survival at Day 7 was about 80%, 50%, and 90% for T02, T03, and T04, respectively, compared to placebo at 0%. Differential gene expression from total lung tissue RNA sequence analysis indicated at least 226 unique genes were up or down regulated (with significance) for T03. Output from ingenuity pathway analysis of these unique genes predicted major upstream regulators of the involved pathways. Data was analyzed based on the number of genes being modulated in the same direction that were associated with a given upstream regulator. An activation z-score of 2 or greater is considered significant and the direction change is indicated by + (activated) or − (inhibited). The top 5 pathways included: IL-9 signaling, glucocorticoid receptor signaling, prolactin signaling, JAK STAT signaling, and IL-17 signaling. The top 6 upstream regulators (activation z-score) included: lipopolysaccharide (−6.725), TNF (−4.669), IFNγ (−5.759), IL-1ß (−5.947), STAT1 (−2.787), and poly rI:rC-RNA (−5.289). Even though this study was run in the murine model, the top upstream regulators identified as being modulated by M9 include an almost ubiquitous overlap with the pathways identified in the natural disease study as being key mediators in BRD, and therefore is modulating highly relevant pathways in BRD pathobiology.
# IL-1β = assay: Bovine whole blood assay, IL-1β; type: cell-based; conditions: overstimulation of IL-1β, perceived cellular toxicity concentration;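 also: compound concentration at which rising IL-1β release signals cytotoxicity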
# Experimental: as §1
# BRD = assay: Separate study, M9 versus saline control: lung lesions and mortality; type: in vivo; conditions: 10 mg/kg
# P. multocida 46572 = assay: In vivo mouse lung infection challenge model (murine efficacy); conditions: mouse, in vivo
# Experimental: The challenge organism was P. multocida 46572. Target challenge concentration was 5×10^2 CFU/mouse. Isolated colonies from overnight growth (37° C. with 5% CO2) on trypticase soy agar (TSA II) blood plates were transferred to room temperature Brain Heart Infusion Broth (BHIB). The broth culture was incubated 3.5-4 hours to approximately mid-log phase of growth, as measured by forward light scatter at 600 nm (OD600, 0.200). The culture was centrifuged to collect the bacterial pellet. The pellet was re-suspended in BHIB and adjusted to provide an approximate concentration of 2.7 log^10 colony forming units (CFU) in 0.04 mL at the highest concentration. The challenge inoculum concentration was confirmed by serial dilutions of the inoculum for CFU enumeration. On Day −5, CD-1 female mice were received. Mice were given standard rodent diet and water ad libitum. On Day 0, bacterial inoculum (0.04 mL) was administered to each mouse (n=36) intranasally. Compounds of the invention were dosed at 20 mg/kg (0.1 mL) in a buffered (˜pH 5.4) propylene glycol, monothioglycerol and water solution by subcutaneous injection. Animals were observed from Days 1-10. The study was terminated on Day 10. In addition, some treatment groups were sampled at 6, 24, and 48 hours post bacterial challenge for RNA sequence analysis of lung tissue.
# The murine efficacy model (P. multocida challenge) was optimized, and the treatment group size was powered to be able to observe statistically significant improvement of survival to expected ranges for immunomodulatory compounds. The experimental design was a randomized complete block design. Mice were individually identified and treatment groups comingled within a cage, with every treatment group equally represented across cages. Mortality was the primary variable. Mortality data was analyzed using a generalized mixed model with fixed effect of treatment and random effect of block. Survival time was also analyzed using the SAS PHREG (survival analysis) procedure to examine whether there were significant differences between treatment groups and the control group. Numerous compounds of the invention and M9 (positive control) were tested in this model at a dose of 20 mg/kg (Table 3). Typical percent survival for no treatment control is in the range of 0-20% based on study to study variation in challenge inoculum and rate of infection. […] Mouse survival for M9 was about 90-100%, further supporting its residual antibacterial properties against the bacterial strain. Harmonized survival accounts for % survival relative to vehicle (“−” control) and M9 (“+” control)) survival data (Table 3).
# H. somni = assay: MIC, H. somni
compound,measurement,setting,value
"CCCNC[C@]1(O)[C@H](C)O[C@@H](O[C@H]2[C@H](C)[C@@H](O[C@@H]3O[C@H](C)C[C@H](NC)[C@H]3O)[C@](C)(O)C[C@@H](C)CN[C@H](C)[C@@H](O)[C@](C)(O)[C@@H](CC)OC(=O)[C@@H]2C)C[C@@]1(C)OC [Example M9, (2R,3S,4R,5R,8R,10R,11R,12S,13S,14R)-2-ethyl-3,4,10-trihydroxy-13-(((2R,4R,5S,6S)-5-hydroxy-4-methoxy-4,6-dimethyl-5-((propylamino)methyl)-tetrahydro-2H-pyran-2-yl)oxy)-11-(((2S,3R,4S,6R)-3-hydroxy-6-methyl-4-(methylamino)tetrahydro-2H-pyran-2-yl)oxy)-3,5,8,10,12,14-hexamethyl-1-oxa-6-azacyclopentadecan-15-one]",IC50,IL-6,> 250 µM
same,Survival at Day 7,P. multocida,~50%
same,IL-1β OS of LPS,IL-1β,> 500 µM
same,lung lesions,"BRD; versus saline control 31%, p=0.023",20%
same,Mortality,"BRD; versus saline control 38.9%, p=0.025",13%
same,clinical efficacy in P. multocida infection in mice,P. multocida 46572,clinically efficacious
same,MIC50,H. somni,32 µg/mL
same,MIC90,H. somni,32 µg/mL
